The results in this text go back to patent US20160015619A1, “TRANSPARENT SOL, GEL COMPOSITION CONTAINING HIGH CONCENTRATIONS OF VITAMIN C AND VITAMIN C DERIVATIVE” (ABIO CO., LTD., priority 2013, published 2016).

The nature of the test: Anti-oxidation experiment (DPPH free radical removing capability). The class given is biochemical. The method, then: The free radical removing capability was experimented using the embodiment 4 in Table 5. In case of the DPPH (1,1-diphenyl-2-picrylhydrazyl) used, the radical removing capability of radical sample which changes colors depending on the changes in oxidation/reduction environment was confirmed through the measurements of the O.D. value.
In details, the DPPH experiment sample was prepared by inputting the solution of the embodiment 4 in Table 5 into each well of the 96-well plate by 100 μl. The DPPH was added by 10 μl, and the mixture was placed at a room temperature for 30 minutes, and the absorbance at 517 nm was measured using a micro plate reader. At this time, the solution prepared by adding 10% of the distilled water instead of vitamin C into the solution of the embodiment 4 and the pure vitamin C were used as a control group.
For orientation: The DPPH test is a chemical assay of radical scavenging.

In the case of `O=C1O[C@H]([C@@H](O)CO)C(O)=C1O` [Control group 2 (vitamin C), L-ascorbic acid], the “effect on the activation of the anti-oxidation (in words)” value was “high effect on the activation of the anti-oxidation”. In addition, the “Activation (%) of anti-oxidation” value (room temperature 30 minutes, absorbance at 517 nm) is 90.8%.
